Test results from article PMC13286573, “Exploration of precision coregulator TR-FRET identifies diverse signatures for LXR ligands relevant to discovery of nonlipogenic ABCA1 inducers” (eLife, 2026).
“Also recorded” adds a separate entry of the source. Values belong to the compound of their own block, whether it stands above or below them.

Legend:
LXR = assay: Categorization of ligands by CRT/pCRT signature; format: biochemical; conditions: response at 1 µM ligand compared with theoretical signatures
Text: With the knowledge that, in pCRT, corepressors bind to the apo-receptor; whereas coactivator binding requires a ligand-induced conformational change, we can categorize all ligands using their CRT profiles. Ligands induce three LXR conformational ensembles with CoR (destabilizing D, stabilizing S, neutral N) and only two conformations with CoA (stabilizing S, neutral N) (Figure 9 (Table 1)). In categorizing ligands based upon these CRT characteristics, labels are needed.
The category for each ligand is not always identical for LXRα vs. LXRβ. Similarly, the phenotype associated with each classification is isoform dependent. Recruitment of CoA to LXRβ by FA, WA, and PA will activate transcription; whereas, lack of recruitment by SA, HA, and RA will antagonize transcription (Figure 9 (Table 1)). Stabilization of CoA and/or destabilization of CoR bound to LXRα is a derepression mechanism leading to activation/transcription for FA, WA, and RA; whereas partial activation is expected for PA.
To determine which LXR ligands fit with these theoretical CRT signatures, concentration-response curves were interpolated to measure normalized response at 1 µM ligand concentration and plotted as a heat map (Figure 9A).

ABCA1 = assay: ABCA1-luc reporter assay in CCF-STTG1 astrocytoma cells; format: cell-based, human; conditions: normalized to T0
Text: Astrocytoma CCF-STTG1 cells, stably transfected with an ABCA1-promoter linked to a luciferase response element, provide a model for ABCA1 induction in astrocytes ([Ben Aissa et al., 2021]). […] Apparent inverse agonist activity in cell-based assays can result from ‘true’ inverse agonist recruitment of corepressors or from antagonist activity towards endogenous sterol LXR agonists. Although we use serum-stripped media, antagonism of endogenous LXR agonists cannot be ruled out.
Low passage CCF-STTG1 cells (20,000 cells/well) were seeded in 96-well plates in media containing charcoal-stripped FBS and incubated at 37 °C and 5% CO2 for 24 hr prior to a 24 hr treatment. All compounds were dissolved in DMSO, and final DMSO concentrations never exceeded 1%. After a 24 hr incubation period, add a volume of ONE-GLOEX Reagent that is equal to the volume of culture medium in each well and incubate for 3–5 min on the shaker. The luminescent activity of compounds ([…], 10-fold dilution) was examined using the ONE-GLOEX assay (Promega). […] The assays were performed in duplicates for each concentration, and the EC50 values were determined from non-linear regression analysis of the dose-response curve generated in GraphPad Prism 9.

HepG2 cells = assay: Cell viability in HepG2 cells under SRE-luc conditions; format: cell-based, human; conditions: conditions of SRE-luc measurements
Text: Figure 5. Lipogenic response of HepG2 cells to treatment with liver X receptor (LXR) ligands. […] See Figure 3—figure supplement 1 for biological replicates. […] See Figure 5—figure supplement 1 for full concentration-response curves. Figure 5—figure supplement 1. Response of HepG2 cells to treatment with liver X receptor (LXR) ligands. (A–B) Lipogenic response of HepG2 cells to treatment with liver X receptor (LXR) ligands showing full concentration-response curves for biphenyl compounds shown in Figure 5E–F. (C) Cell viability in HepG2 cells under identical conditions to those used to obtain sterol response element (SRE)-luc data. [drawing 5]

[1] = test system: sterol response element (SRE); assay: SRE-luc reporter assay in HepG2 cells; format: cell-based, human
Method in brief: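 HepG2 cells stably carrying an SRE (LDLR) promoter–NlucP reporter, grown in medium with charcoal-stripped FBS. Treated with compounds for 24 hr at 37 °C, then lysed and nanoluciferase luminescence read.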

LXRβ = biological target: T1, LXRβ (Homo sapiens, UniProt P55055); assay: NCOR2 corepressor binding to LXRβ, CRT; format: biochemical; design: The CRT selectivity assay incorporates GST-tagged LXR-LBD; purchased Thermo Fisher Scientific PV4660; conditions: read-out: NCOR2β, relative % activity at 1 μM
T1 sequence (P55055 222-460 limits assumed): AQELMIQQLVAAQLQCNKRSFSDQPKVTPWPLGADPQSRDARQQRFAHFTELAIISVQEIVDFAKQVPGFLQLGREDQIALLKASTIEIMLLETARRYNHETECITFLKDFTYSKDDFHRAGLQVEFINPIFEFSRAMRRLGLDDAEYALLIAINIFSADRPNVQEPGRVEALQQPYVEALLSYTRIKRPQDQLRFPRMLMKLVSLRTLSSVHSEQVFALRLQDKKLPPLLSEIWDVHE

activity at 1 µM (LXRβ): 57.7%
SMILES: Cc1cc(C)c(S(=O)(=O)N(Cc2ccc(-c3cccc(S(C)(=O)=O)c3)cc2)Cc2ccc(C(F)(F)F)o2)c(C)c1 [GSK2033]
CRT/pCRT signature category (LXR): HA (hard antagonist (HA))
ABCA1 induction response/phenotype in CCF cells (ABCA1): inverse agonist activity in cells
HepG2 cell viability/cytotoxicity (HepG2 cells): no loss of cell viability
SRE activation response/phenotype in HepG2 [1]: neutral or antagonist response

SMILES: CCOC(=O)c1ccc(CN(Cc2ccc(-c3cccc(S(C)(=O)=O)c3)cc2)S(=O)(=O)c2c(C)cc(C)cc2C)o1 [SR9238]
CRT/pCRT signature category (LXR): RA (reverse agonist (RA))
ABCA1 induction response/phenotype in CCF cells (ABCA1): inverse agonist activity in cells
HepG2 cell viability/cytotoxicity (HepG2 cells): no loss of cell viability
SRE activation response/phenotype in HepG2 [1]: lowered SRE activation below baseline; also recorded: neutral or antagonist response; also recorded: inverse agonist at <3 µM concentration
activity at 1 µM (LXRβ): 21.9%
